Results on three compounds are retold here after patent publication US20160081336A1, “MEDIUM WITH A PLANT NON-METABOLIZABLE SUGAR FOR IMPROVING SEED GERMINATION” (WEYERHAEUSER NR COMPANY, priority 2014, published 2016).

The nature of assay [1]: Study testing increased arginine in gametophyte medium. Particulars: in vivo. From the text: Aside from the signaling evidence from the literature, the effect of isomaltulose is not thought to be simply from additional osmoticant because higher osmolality medium would drive the water potential gradient further in the direction of the gametophyte, not toward the embryo.

Assay [2] deals with embryos dissected from natural loblolly pine seed. Kind of assay: Germination of loblolly pine embryos in manufactured seed, sucrose/isomaltulose gametophyte media (Example 2). Type of assay: in vivo. Conditions: relative to 20 sucrose.
Description: Normal (germination score): Fully extracted out of seed with no malformation (epicotyl optional for fully extracted). OR partial germinant with epicotyl out of cavity and all organs—No Malformations present. Root length of at least 3.0 mm.
Partial Normal (germination score): Not fully emerged, partial germinant with no epicotyl and no malformations. Root length of at least 3.0 mm.
Not normal (germination score): Malformed partial germinants, lacking organs, roots less than 3 mm, any upside down or twisted germinant, or germinated and died as evidenced by lid penetration but no germinant present.
Manufactured seeds were prepared with KE 64 agar nutritive medium, as shown below in Table 1, with sucrose (50 g/L), agar (18 g/L to 26 g/L), nutrient-loaded charcoal (60 g/L) and Pluronic F68 (10 g/L).
The germination rate may be measured and the normalcy of the germinants may also be assessed. A “normal germinant” or “normalcy” denotes the presence of all expected parts of a plant at time of evaluation. In the case of gymnosperms, normalcy is characterized by the radicle having a length greater than 3 mm and no visibly discernable malformations compared to the appearance of embryos germinated from natural seed. “Not normal” means tissue on at least one organ is swollen, and the root and cotyledons are dead. […]
Assay [3] deals with alkaline and acid invertases. Particulars: cut potato tubers; cited from earlier work.
The next assay relates to embryos. Kind of assay: Lower sucrose concentrations study (15, 25, 35 and 50 g/l; FIG. 4-6). Type of assay: in vivo. An excerpt:
Organ lengths were also a factor with relation to sucrose concentrations. It was hypothesized that lower sucrose concentrations would affect root lengths and indeed the lower sucrose treatments produced shorter root lengths as compared to the highest group 50 g/l sucrose (FIG. 4). […] After observing sufficient lid penetration, seed were transferred from boxes to sterile sand.

Another assay concerns developing embryo. Kind of assay: Earlier sucrose level study in manufactured seed (FIG. 2, 3). Type of assay: in vivo. An excerpt: Higher water potential with relation to lower sucrose levels (solute concentration) was previously purported to increase flooding in gametophyte seed cavities. […] Because of the flooding problem, this study could have selected for those treatments that had the most rapid lid penetration, which would allow embryos to escape the flooded seed environment.

Turning to `N=C(N)NCCC[C@H](N)C(=O)O` [arginine], in assay [1], the “performance with increased arginine” value is “reduced performance at higher levels”.
Consider `O=C(CO)[C@@H](O)[C@H](O)[C@H](O)CO[C@H]1O[C@H](CO)[C@@H](O)[C@H](O)[C@H]1O` [isomaltulose, 6-O-α-d-glucopyranosyl-D-fructose], for which, in assay [2], the lateral roots result is “significantly improved lateral root presence”. In assay [3], the “isomaltulose concentration at peak acid invertase activity” value is 20 mM and the “isomaltulose concentration at peak alkaline invertase activity” value was 50 mM.
Consider `OC[C@H]1O[C@@](CO)(O[C@H]2O[C@H](CO)[C@@H](O)[C@H](O)[C@H]2O)[C@@H](O)[C@@H]1O` [sucrose], for which the root length entry with embryos (FIG. 4) is “increased root length with relation to rising sucrose levels”. For the same compound, the normalcy entry with embryos (after germination in sand, FIG. 6) is “normalcy increasing with higher sucrose concentrations”; in the assay with developing embryo (FIG. 3) it was “decreased with increasing sucrose concentration”. The embryo activity entry with embryos (day 5, FIG. 5) was “Lower concentrations of sucrose gave the highest yield of embryo activity”. Moreover, the organ lengths entry with developing embryo (FIG. 2) was “increased with sucrose at 50 g/l and greater”.
